In patent US9618513B2, “Compositions and methods for detecting and treating colorectal cancer” (The Regents of the University of Michigan, priority 2014, dated 2017):

Key:
DLD-1 colon cancer cells = assay: Colon cancer sphere assay, DLD-1 cells; assay type: cell-based, human
Text: (A), IL-22 is expressed in colon cancer tissues. IL-22 mRNA was detected by real-time PCR in colon cancer tissues and peripheral blood. *P<0.05 compared to blood, 20 colon cancer patients. (B-D), Endogenous IL-22 promotes colon carcinogenesis. Single cells (10^7) isolated from colon cancer tissue were mixed with anti-IL-22 antibody or control mAb, and then subcutaneously injected to NSG mice. Tumor growth (B), incidence (C), and animal survival (D) are shown. (P<0.05 for all, n=5 per group). (E-G) Recombinant IL-22 promotes colon carcinogenesis. DLD-1 colon cancer cells (10^5) were pre-incubated with IL-22 (20 ng/ml) for 1 hour, and then subcutaneously injected to NSG mice. Tumor growth (E), incidence (F), and animal survival (G) are shown. (P<0.05 for all, n=5 per group). (H, I) IL-22 enhances colon cancer sphere formation. DLD-1 colon cancer cells were pre-incubated for 24 hours with IL-22. […] ALDH activity was determined by FACS based on aldefluor fluorescence. […] Results are expressed as fold changes of ALDH expression. […] The mRNA of stem cell core gene was detected by real-time PCR (K) and proteins were detected by western blotting (L, M). […]
(A) IL-22 induces H3K79me2 in colon cancer cells. […] Total histone modifications were analyzed by western blot. […] Sphere numbers were recorded. […] DOT1L complex gene expression was quantified by real-time PCR. […] Sphere numbers were recorded. […]

[1] = test system: cyclin-dependent kinase inhibitors, cyclins and CDK4 in DLD-1; assay: Cell cycle gene expression by real-time PCR; assay type: cell-based, human
Text: A. GSEA analysis identifies proliferation pathways have positive correlation with IL-22. B. Cell proliferation maker Ki67 was detected by FACS. C. H^3 Thymidine Incorporation was used to detect the function of IL-22 in cell proliferation. D. Cell number was counted after stimulated with IL-22. E. Cells isolated from colon cancer tissue (Tumor cells and Leukocytes) were stimulated with a-CD3 and […] for 3 days, and supernatant mixed with or without anti-IL-22 antibody was co-cultured with DLD1 cells for 24 h to test cell proliferation. F. Cell cyclin-dependent kinase and kinase inhibitors were analyzed by Real-Time PCR.
The identification of target genes for IL-22 is essential for the determination of the mechanism by which it promotes proliferation in colon cancer cells. As such, the relative mRNA levels in DLD-1 colon cancer cell line was examined by real time quantitative PCR. As expected, IL-22 reduced the expression of the cyclin-dependent kinase inhibitors: p16 (CDKN2A), p18 (CDKN2C), p19 (CDKN2D), p21 (CDKN1A), p27 (CDKN1B), p53 and p57 (CDKN1C).
The mRNAs were quantified by real-time RT-PCR. SYBR Green Master Mix was used to detect fluorescence. Relative expression was calculated according to the Ct value with normalization to GAPDH.

Row | Molecule | sphere formation induced by IL-22 (DLD-1 colon cancer cells; DLD-1 cells, in the presence of IL-22, inhibitor 10 uM) | tumor sphere formation (DLD-1 colon cancer cells; DLD-1 pre-incubated 24 hours with IL-22, 2,000 cells) | mRNA levels of cyclin A1, D1, D3, E1, E2 and CDK4 ([1]; DLD-1) | expression of cyclin-dependent kinase inhibitors p16, p18, p19, p21, p27, p53 and p57 ([1]; DLD-1, mRNA)
1 | CC(C)N(CCCNC(=O)Nc1ccc(C(C)(C)C)cc1)C[C@H]1O[C@@H](n2ccc3c(N)ncnc32)[C@H](O)[C@@H]1O [EPZ004777] | suppressed |  |  | 
2 | IL-22: recombinant IL-22 (R&D systems), cytokine interleukin-22 |  | promoted tumor sphere formation in a dose dependent manner | increased | reduced
